Measured values: US20230288338A1, “LUMINESCENT SUBSTRATE COMPOUND” (NATIONAL INSTITUTE OF ADVANCED INDUSTRIAL SCIENCE AND …, priority 2020, published 2023)

Legend:
Assay type in all cases: biochemical
[1] = biological target: T1, bovine serum albumin (BSA) (Bos taurus, UniProt P02769); test: Luminescence intensity measurement with bovine serum albumin; conditions: total luminescence over 60 seconds, normalized against native coelenterazine in HSA set to 1.0; 10 µM substrate solution, 10 mM PB buffer pH 7.4
T1 construct: bovine serum-derived lyophilized powder, Sigma-Aldrich; purchased Sigma-Aldrich; host or cells: purified from bovine serum
Protocol: (§1) Human serum albumin (human serum-derived lyophilized powder, Fatty acid free, Globulin free, Sigma-Aldrich), other human protein species or bovine serum albumin (bovine serum-derived lyophilized powder, Sigma-Aldrich) was dissolved in PB Buffer (10 mM, pH 7.4) and used directly for luminescence measurement. As luminescent substrates, NCTZ, DeepBlueC™, MCLA™, control compounds 1 to 3, HuLumino12 and HuLumino22 were used. Each luminescent substrate was dissolved in methanol to give a 2 mM solution. This solution was diluted to 10 µM with 10 mM PB buffer (pH 7.4) for use as a substrate solution. To 90 µL of this solution, 10 µL of 10 mM PB buffer (pH 7.4) containing human serum albumin (HSA) or bovine serum albumin (BSA) was added to initiate a luminescent reaction. The luminescence intensity was measured with a Promega GloMax® 20/20 for 60 seconds, and the results were expressed as total luminescence (Total Luminescence/min) and compared (FIG. 1). […]

[2] = biological target: T2, human serum albumin (HSA) (Homo sapiens, UniProt P02768); test: Luminescence intensity measurement with human serum albumin; conditions: for HSA Luminescence intensity: total luminescence over 60 seconds, normalized against native coelenterazine in HSA set to 1.0, 10 µM substrate solution, 10 mM PB buffer pH 7.4
T2 construct: human serum-derived lyophilized powder, Fatty acid free, Globulin free, Sigma-Aldrich; purchased Sigma-Aldrich; host or cells: purified from human serum
Protocol: as §1

[3] = biological target: T2, human serum albumin (HSA); test: Luminescence spectrum measurement in the presence of HSA (FIG. 6)
Protocol: FIG. 6 is a graph showing the luminescence wavelength (luminescence spectrum measurement result) of HuLumino12 (a compound according to an example of the present invention) in the presence of human serum albumin (HSA).
The luminescence spectrum was measured with a spectrometer. The peak luminescence wavelength was obtained by being normalized against the peak luminescence intensity which was set to 1.0.

[4] = biological target: T2, human serum albumin (HSA); test: HSA concentration-dependent luminescence intensity, detection limit (FIG. 5)
From the text: FIG. 5 is a graph showing the luminescence intensity of HuLumino12 (a compound according to an example of the present invention), which is dependent on the concentration of human serum albumin (HSA).

[5] = tested on: various human-derived proteins; test: Luminescence intensity upon reaction with various human-derived proteins or bovine serum albumin (FIG. 2)
Protocol: FIG. 2 is a graph showing the luminescence intensity of HuLumino12 (a compound according to an example of the present invention) upon reaction with various human-derived proteins or bovine serum albumin.
as §1

HSA = biological target: T3, HSA (Homo sapiens, UniProt P02768); test: Michaelis-Menten constant of luminescent substrate/HSA reaction
T3 construct: human serum-derived lyophilized powder, Fatty acid free, Globulin free, Sigma-Aldrich; purchased Sigma-Aldrich; host or cells: purified from human serum

[6] = biological target: T2, human serum albumin (HSA); test: Luminescence duration in the presence of HSA (FIG. 4); conditions: luminescent reaction with HSA
From the text: FIG. 4 is a graph showing the luminescence property (luminescence duration) of HuLumino12 (a compound according to an example of the present invention) in the presence of human serum albumin (HSA).

[7] = biological target: T2, human serum albumin (HSA); test: Signal to noise ratio of luminescence in the presence of HSA (FIG. 3); conditions: luminescent reaction with HSA; for S/N ratio: FIG. 3
From the text: FIG. 3 is a graph showing the luminescence property (signal to noise ratio, S/N ratio) of compounds according to examples of the present invention and comparative examples in the presence of human serum albumin (HSA).

T2 sequence (P02768 25-609): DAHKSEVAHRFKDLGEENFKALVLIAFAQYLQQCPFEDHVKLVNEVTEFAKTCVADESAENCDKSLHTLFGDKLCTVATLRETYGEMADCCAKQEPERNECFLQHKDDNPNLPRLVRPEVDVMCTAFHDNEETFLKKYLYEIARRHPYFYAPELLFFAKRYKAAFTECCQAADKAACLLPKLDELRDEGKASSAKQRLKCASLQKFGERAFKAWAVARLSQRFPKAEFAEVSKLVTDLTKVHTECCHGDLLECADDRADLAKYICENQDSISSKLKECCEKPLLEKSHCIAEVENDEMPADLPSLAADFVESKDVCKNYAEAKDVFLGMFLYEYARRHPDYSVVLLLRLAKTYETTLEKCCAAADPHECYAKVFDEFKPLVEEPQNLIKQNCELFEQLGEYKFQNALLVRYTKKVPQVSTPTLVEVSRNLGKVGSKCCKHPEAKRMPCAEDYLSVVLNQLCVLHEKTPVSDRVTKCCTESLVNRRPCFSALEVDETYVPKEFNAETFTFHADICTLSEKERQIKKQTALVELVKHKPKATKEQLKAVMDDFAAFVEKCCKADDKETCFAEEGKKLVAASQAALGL
T1 sequence (P02769 25-607): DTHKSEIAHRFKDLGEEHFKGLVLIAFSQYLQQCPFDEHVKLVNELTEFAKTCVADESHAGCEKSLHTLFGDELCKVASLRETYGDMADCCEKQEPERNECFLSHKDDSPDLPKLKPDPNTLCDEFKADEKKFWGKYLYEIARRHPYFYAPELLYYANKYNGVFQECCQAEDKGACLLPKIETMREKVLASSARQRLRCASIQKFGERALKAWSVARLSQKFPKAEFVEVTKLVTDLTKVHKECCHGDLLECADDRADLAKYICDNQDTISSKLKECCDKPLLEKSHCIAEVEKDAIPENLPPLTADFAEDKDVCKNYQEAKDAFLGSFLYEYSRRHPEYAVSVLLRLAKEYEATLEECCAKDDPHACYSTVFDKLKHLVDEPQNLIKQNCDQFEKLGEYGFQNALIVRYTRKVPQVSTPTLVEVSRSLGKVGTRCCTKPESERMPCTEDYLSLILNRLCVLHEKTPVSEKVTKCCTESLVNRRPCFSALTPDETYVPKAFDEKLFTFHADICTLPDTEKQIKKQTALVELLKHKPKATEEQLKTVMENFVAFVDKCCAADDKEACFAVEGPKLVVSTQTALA
T3 sequence (P02768 25-609): as the sequence (P02768 25-609) above

BSA Luminescence intensity [1] | HSA Luminescence intensity [2] | SMILES | also measured
11.2 | 13.7 | O=c1c(Cc2ccccc2)nc2c[nH]c(-c3ccc(O)cc3)cn1-2 [Control compound 2, reference compound] | –
34.4 | 554 | COc1ccc(-c2cn3c(=O)c(Cc4ccccc4)nc-3c[nH]2)cc1 [Control compound 3, reference compound] | –
11.9 | 912 | COCCCOc1ccc(-c2cn3c(=O)c(Cc4ccccc4)nc-3c[nH]2)cc1 [HuLumino12, 2-benzyl-6-(4-(3-methoxypropoxy)phenyl)imidazo[1,2-a]pyrazin-3(7H)-one] | peak luminescence wavelength [3]: 427 nm; detection limit of HSA detection [4]: 7.4 µg/mL; luminescence intensity higher than NCTZ/HSA ([2]; with HSA, relative to NCTZ/HSA): 912 fold; specificity of luminescent reaction among various human protein species [5]: specific luminescent reaction when recognized by human serum albumin (HSA); Michaelis-Menten constant (HSA): 4.2 µM; luminescence duration [6]: 3 h; S/N ratio [7]: 37
9.8 | 61.3 | O=c1c(Cc2ccccc2)nc2c[nH]c(/C=C/c3ccccc3)cn1-2 [HuLumino45, (E)-2-benzyl-6-styrylimidazo[1,2-a]pyrazin-3(7H)-one] | –
3.1 | 14.2 | COCCCOc1ccc(-c2cn3c(=O)c(C)nc-3c[nH]2)cc1 [HuLumino22, 6-(4-(3-methoxypropoxy)phenyl)-2-methylimidazo[1,2-a]pyrazin-3(7H)-one] | –
3.9 | 1.0 | O=c1c(Cc2ccc(O)cc2)nc2c(Cc3ccccc3)[nH]c(-c3ccc(O)cc3)cn1-2 [NCTZ, reference compound] | Michaelis-Menten constant (HSA): 25.3 µM
5.2 | 206 | O=c1c(Cc2ccccc2)nc2c[nH]c(/C=C/c3ccc(-c4ccccc4)cc3)cn1-2 [HuLumino44, (E)-6-(2-([1,1′-biphenyl]-4-yl)vinyl)-2-benzylimidazo[1,2-a]pyrazin-3(7H)-one] | S/N ratio relative to that of HuLumino12 [7]: approximately 4 fold; S/N ratio [7]: 150
7.6 | 22.1 | O=c1c(Cc2ccccc2)nc2c(Cc3ccccc3)[nH]c(-c3ccccc3)cn1-2 [DeepBlueC™, reference compound] | –
19.2 | 154 | COc1ccc(/C=C/c2cn3c(=O)c(Cc4ccccc4)nc-3c[nH]2)cc1 [HuLumino30, (E)-2-benzyl-6-(4-methoxystyryl)imidazo[1,2-a]pyrazin-3(7H)-one] | –
34.3 | 51.5 | COCCCOc1ccc(-c2cn3c(=O)c(Cc4ccccc4)nc-3c(Cc3ccccc3)[nH]2)cc1 [BBlue2.3, reference compound] | –

SMILES | BSA Luminescence intensity [1] | HSA Luminescence intensity [2] | also measured
COc1ccc(-c2cn3c(=O)c(C)nc-3c[nH]2)cc1 [MCLA™, reference compound] | 1.8 | 14.1 | –
